Assay results published in ChEMBL document CHEMBL1909046, “DrugMatrix in vitro pharmacology data”.

Tests used:
Adenosine receptor A3 = molecular target: T1, Adenosine receptor A3 (Homo sapiens, UniProt P0DMS8); type: cell membranes, CHO-K1, Membrane;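 note: radioligand binding assay with AB-MECA serving as the labeled ligand; in other assays of this panel Not Active means under 50% inhibition at 10 µM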
T1 sequence (P0DMS8 whole entry): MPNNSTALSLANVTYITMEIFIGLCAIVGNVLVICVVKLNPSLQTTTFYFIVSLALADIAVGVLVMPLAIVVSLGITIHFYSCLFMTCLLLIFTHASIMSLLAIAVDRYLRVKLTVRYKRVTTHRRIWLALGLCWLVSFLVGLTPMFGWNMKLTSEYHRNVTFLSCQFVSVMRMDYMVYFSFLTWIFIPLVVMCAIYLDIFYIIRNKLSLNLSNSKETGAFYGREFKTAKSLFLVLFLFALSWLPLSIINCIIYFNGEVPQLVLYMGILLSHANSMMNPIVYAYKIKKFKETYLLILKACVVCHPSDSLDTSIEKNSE

[1] = molecular target: T2, Angiotensin-converting enzyme (Oryctolagus cuniculus, UniProt P12822); type: tissue-based, Lung;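 note: enzymatic inhibition of angiotensin-converting enzyme measured with FAPGG as the substrate; in other assays of this panel Not Active means under 50% inhibition at 10 µM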
T2 sequence (P12822 whole entry): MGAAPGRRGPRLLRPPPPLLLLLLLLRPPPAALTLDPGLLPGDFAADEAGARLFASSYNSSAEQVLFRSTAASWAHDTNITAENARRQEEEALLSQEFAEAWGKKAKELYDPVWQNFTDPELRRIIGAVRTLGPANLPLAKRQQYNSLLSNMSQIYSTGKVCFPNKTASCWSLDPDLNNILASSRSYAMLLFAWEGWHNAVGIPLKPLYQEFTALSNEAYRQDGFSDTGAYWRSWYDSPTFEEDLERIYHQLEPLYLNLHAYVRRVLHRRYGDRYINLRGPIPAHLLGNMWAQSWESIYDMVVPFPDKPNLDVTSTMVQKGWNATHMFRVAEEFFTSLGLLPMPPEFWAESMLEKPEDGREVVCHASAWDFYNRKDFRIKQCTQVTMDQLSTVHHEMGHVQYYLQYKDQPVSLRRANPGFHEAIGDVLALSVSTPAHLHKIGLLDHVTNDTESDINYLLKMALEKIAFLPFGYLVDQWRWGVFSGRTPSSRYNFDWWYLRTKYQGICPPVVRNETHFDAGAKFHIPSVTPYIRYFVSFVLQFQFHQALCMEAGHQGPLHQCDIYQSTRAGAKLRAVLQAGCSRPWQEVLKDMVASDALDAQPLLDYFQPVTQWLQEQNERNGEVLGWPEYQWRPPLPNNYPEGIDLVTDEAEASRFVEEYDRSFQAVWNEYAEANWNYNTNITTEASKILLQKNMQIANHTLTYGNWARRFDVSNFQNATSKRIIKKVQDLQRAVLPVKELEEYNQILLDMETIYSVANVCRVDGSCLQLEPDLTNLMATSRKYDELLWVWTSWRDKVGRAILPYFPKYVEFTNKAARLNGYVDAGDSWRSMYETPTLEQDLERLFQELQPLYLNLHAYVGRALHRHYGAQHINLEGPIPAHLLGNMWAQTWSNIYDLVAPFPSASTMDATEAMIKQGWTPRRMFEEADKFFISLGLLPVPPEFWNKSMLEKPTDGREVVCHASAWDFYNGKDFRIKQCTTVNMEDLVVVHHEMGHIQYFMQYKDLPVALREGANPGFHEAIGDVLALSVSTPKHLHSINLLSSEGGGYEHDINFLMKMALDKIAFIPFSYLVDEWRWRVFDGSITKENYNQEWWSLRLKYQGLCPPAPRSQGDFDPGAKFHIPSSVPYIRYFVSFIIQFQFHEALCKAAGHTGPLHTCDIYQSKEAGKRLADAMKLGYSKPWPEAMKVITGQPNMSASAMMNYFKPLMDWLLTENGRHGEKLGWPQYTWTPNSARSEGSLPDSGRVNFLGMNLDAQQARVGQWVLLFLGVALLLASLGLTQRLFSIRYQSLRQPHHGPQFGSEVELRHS

[2] = molecular target: Beta-3 adrenergic receptor (Homo sapiens, UniProt P13945); test: DRUGMATRIX: Adrenergic beta3 radioligand binding (ligand: [125I] Cyanopindolol); type: cell membranes, HEK293, Membrane; conditions: Not Active = under 50% inhibition at 10 µM
[3] = DRUGMATRIX: Imidazoline I2, Central radioligand binding (ligand: [3H] Idazoxan); type: cell membranes, Rattus norvegicus, Wistar, Cerebral cortex, Membrane; conditions: Not Active = under 50% inhibition at 10 µM
Endothelin-1 receptor = molecular target: T3, Endothelin-1 receptor (Homo sapiens, UniProt P25101); type: cell membranes, Membrane; conditions: cho-k1; note: in other assays of this panel Not Active means under 50% inhibition at 10 µM
T3 sequence (P25101 whole entry): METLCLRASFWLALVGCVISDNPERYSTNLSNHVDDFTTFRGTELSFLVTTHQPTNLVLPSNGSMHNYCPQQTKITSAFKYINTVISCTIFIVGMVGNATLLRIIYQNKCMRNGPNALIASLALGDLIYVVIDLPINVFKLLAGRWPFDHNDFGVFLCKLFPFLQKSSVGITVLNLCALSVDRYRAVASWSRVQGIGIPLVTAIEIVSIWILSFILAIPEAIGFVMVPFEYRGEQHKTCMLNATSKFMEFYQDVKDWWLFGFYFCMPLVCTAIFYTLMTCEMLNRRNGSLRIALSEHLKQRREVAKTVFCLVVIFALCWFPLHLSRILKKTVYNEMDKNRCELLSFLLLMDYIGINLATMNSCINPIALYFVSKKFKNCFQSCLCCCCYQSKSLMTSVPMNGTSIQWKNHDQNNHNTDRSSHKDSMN

[4] = molecular target: T4, C-X-C chemokine receptor type 1 (Homo sapiens, UniProt P25024); note: in other assays of this panel Not Active means under 50% inhibition at 10 µM
T4 sequence (P25024 whole entry): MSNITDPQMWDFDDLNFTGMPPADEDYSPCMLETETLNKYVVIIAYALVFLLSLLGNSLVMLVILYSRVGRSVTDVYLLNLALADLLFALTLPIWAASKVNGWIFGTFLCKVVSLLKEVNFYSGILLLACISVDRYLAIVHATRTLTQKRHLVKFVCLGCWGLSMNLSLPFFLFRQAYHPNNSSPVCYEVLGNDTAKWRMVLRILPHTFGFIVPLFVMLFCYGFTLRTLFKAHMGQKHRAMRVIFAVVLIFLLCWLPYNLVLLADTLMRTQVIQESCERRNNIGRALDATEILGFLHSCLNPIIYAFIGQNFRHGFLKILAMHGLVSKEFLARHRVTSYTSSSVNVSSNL

Adenosine receptor A1 = molecular target: T5, Adenosine receptor A1 (Homo sapiens, UniProt P30542); type: cell membranes, CHO, Membrane; conditions: cho
T5 sequence (P30542 whole entry): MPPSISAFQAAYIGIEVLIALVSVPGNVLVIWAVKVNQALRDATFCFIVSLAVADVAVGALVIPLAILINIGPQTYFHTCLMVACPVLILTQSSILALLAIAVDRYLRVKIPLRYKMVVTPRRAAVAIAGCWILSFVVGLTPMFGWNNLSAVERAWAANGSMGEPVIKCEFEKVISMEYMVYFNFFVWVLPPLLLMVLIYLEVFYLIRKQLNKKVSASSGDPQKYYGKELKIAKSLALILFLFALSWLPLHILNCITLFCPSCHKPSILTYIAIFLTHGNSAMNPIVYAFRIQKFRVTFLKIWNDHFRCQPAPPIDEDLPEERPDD

Beta-3 adrenergic receptor, sequence (P13945 whole entry): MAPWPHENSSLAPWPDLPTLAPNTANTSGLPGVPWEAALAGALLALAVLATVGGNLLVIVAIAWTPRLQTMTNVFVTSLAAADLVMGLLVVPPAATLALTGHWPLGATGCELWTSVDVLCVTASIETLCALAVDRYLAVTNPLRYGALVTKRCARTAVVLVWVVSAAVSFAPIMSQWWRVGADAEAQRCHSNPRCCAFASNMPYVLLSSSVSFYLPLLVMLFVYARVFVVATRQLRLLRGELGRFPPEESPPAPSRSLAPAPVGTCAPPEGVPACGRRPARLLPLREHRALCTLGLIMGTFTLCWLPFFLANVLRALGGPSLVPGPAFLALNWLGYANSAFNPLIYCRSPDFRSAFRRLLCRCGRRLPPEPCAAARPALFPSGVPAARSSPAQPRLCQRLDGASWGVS

Row | Structure (SMILES) | IC50 (Adenosine receptor A3; cho-k1) | IC50 [1] | IC50 ([2]; hek293) | IC50 [3] | Ki [3] | IC50 (Endothelin-1 receptor) | IC50 [4] | IC50 (Adenosine receptor A1) | IC50 ([3]; read-out: IC50) | Ki ([3]; read-out: Ki) | IC50 (Adenosine receptor A3; read-out: IC50) | Ki (Adenosine receptor A3; read-out: Ki) | IC50 ([2]; read-out: IC50) | Ki ([2]; read-out: Ki)
1 | Cc1cccc(C)c1OCC(C)N (stereo not drawn) [MEXILETINE] | Not Active | Not Active | Not Active | Not Active | Not Active | Not Active | Not Active | Not Active |  |  |  |  |  | 
2 | CC(C)NCC(O)c1ccc(O)c(O)c1 (stereo not drawn) [ISOPROTERENOL] | Not Active | Not Active | Not Active | Not Active | Not Active | Not Active | Not Active | Not Active |  |  |  |  |  | 
3 | NC1CCN(c2nc3c(cc2F)c(=O)c(C(=O)O)cn3-c2ccc(F)cc2F)C1 (stereo not drawn) [TOSUFLOXACIN] | Not Active | Not Active | Not Active | Not Active | Not Active | Not Active | Not Active | Not Active |  |  |  |  |  | 
4 | COc1ccc(CCN(C)CCCC(C#N)(c2ccc(OC)c(OC)c2)C(C)C)cc1OC (stereo not drawn) | Not Active | Not Active | Not Active |  |  | Not Active | Not Active | Not Active | 5.52 µM | 3.68 µM |  |  |  | 
5 | CN[C@H]1CC[C@@H](c2ccc(Cl)c(Cl)c2)c2ccccc21 [SERTRALINE] | Not Active | Not Active | Not Active |  |  | Not Active | Not Active | Not Active |  |  |  |  |  | 
6 | Fc1ccc(C(c2ccc(F)cc2)N2CCN(C/C=C/c3ccccc3)CC2)cc1 [FLUNARIZINE] |  | Not Active | Not Active |  |  | Not Active | Not Active | Not Active |  |  | 5.2 µM | 2.94 µM |  | 
7 | CN(C)CCOC(c1ccccc1)c1ccccc1 [DIPHENHYDRAMINE] | Not Active | Not Active | Not Active |  |  | Not Active | Not Active | Not Active |  |  |  |  |  | 
8 | CNCCC(Oc1ccc(C(F)(F)F)cc1)c1ccccc1 (stereo not drawn) [FLUOXETINE] | Not Active | Not Active | Not Active |  |  | Not Active | Not Active | Not Active |  |  |  |  |  | 
9 | Cc1ccc(NC(=O)c2ccc(CN3CCN(C)CC3)cc2)cc1Nc1nccc(-c2cccnc2)n1 [IMATINIB] | Not Active | Not Active | Not Active |  |  | Not Active | Not Active | Not Active |  |  |  |  |  | 
10 | Clc1ccc(COC(Cn2ccnc2)c2ccc(Cl)cc2Cl)cc1 (stereo not drawn) [ECONAZOLE] |  | Not Active |  |  |  | Not Active | Not Active |  |  |  |  |  | 6.15 µM | 4.61 µM
